Each block holds one compound with its values, some of them ahead of it.
Columns and labels:
Botrytis cinerea = assay: Botrytis test (bean)/protective; format: in vivo; details: protective spray, application rate 100 ppm, lesion size evaluated 2 days after inoculation
Description: [table] To prepare an expedient active compound preparation, 1 part by weight of active compound is mixed with the stated amounts of solvent and emulsifier, and the concentrate is diluted to the desired concentration with water. To test for protective activity, young plants are sprayed with the active compound preparation at the application rate stated. After the spray coating has dried on, 2 small agar blocks which sustain the growth of Botrytis cinerea are placed on each leaf. The inoculated plants are placed in a darkened chamber at approximately 20° C. and 100% relative atmospheric humidity. 2 days after the inoculation, the size of the lesions on the leaves is evaluated. 0% means an efficacy which corresponds to that of the control, while an efficacy of 100% means that no disease is observed.

[1] = logP determination by HPLC on reversed-phase column (C18), EEC Directive 79/831 Annex V.A8; format: physicochemical; details: pH 2.3, HPLC reversed-phase C18, 43° C., 0.1% aqueous phosphoric acid/acetonitrile
Description: The logP values stated in the above tables and preparation examples are determined as described in EEC Directive 79/831 Annex V.A8 by means of HPLC (high performance liquid chromatography) on a reversed-phase column (C18). Temperature: 43° C. The determination is effected in the acidic range at pH 2.3 using 0.1% aqueous phosphoric acid and acetonitrile as eluents; linear gradient from 10% acetonitrile to 90% acetonitrile. The calibration is effected with unbranched alkan-2-ones (having 3 to 16 carbon atoms) whose logP values are known (determination of the logP values with reference to the retention times by linear interpolation between two successive alkanones).

Pyrenophora teres = Pyrenophora teres test (barley)/protective; format: in vivo; details: protective spray, application rate 1000 ppm, evaluated 8 days after inoculation
Description: Pyrenophora teres Test (Barley)/Protective To prepare an expedient active compound preparation, 1 part by weight of active compound is mixed with the stated amounts of solvent and emulsifier, and the concentrate is diluted to the desired concentration with water. To test for protective activity, young plants are sprayed with the active compound preparation at the application rate stated. After the spray coating has dried on, the plants are sprayed with a conidial suspension of Pyrenophora teres. The plants remain in an incubation cabinet for 48 hours at 20° C. and 100% relative atmospheric humidity. The plants are then placed into a greenhouse at a temperature of approximately 20° C. and a relative atmospheric humidity of approximately 80%. The test is evaluated 8 days after the inoculation. 0% means an efficacy which corresponds to that of the control, while an efficacy of 100% means that no disease is observed.

[2] = system: Erysiphe graminis fsp. hordei; assay: Erysiphe test (barley)/protective; format: in vivo; details: protective spray, application rate 1000 ppm, evaluated 7 days after inoculation
Description: Erysiphe Test (Barley)/Protective To prepare an expedient active compound preparation, 1 part by weight of active compound is mixed with the stated amounts of solvent and emulsifier, and the concentrate is diluted to the desired concentration with water. To test for protective activity, young plants are sprayed with the active compound preparation at the application rate stated. After the spray coating has dried on, the plants are dusted with spores of Erysiphe graminis fsp. hordei. The plants are placed in a greenhouse at a temperature of approximately 20° C. and a relative atmospheric humidity of approximately 80% to favour the development of mildew pustules. The test is evaluated 7 days after the inoculation. 0% means an efficacy which corresponds to that of the control, while an efficacy of 100% means that no disease is observed.

Leptosphaeria nodorum = Leptosphaeria nodorum test (wheat)/protective; format: in vivo; details: protective spray, application rate 1000 ppm, evaluated 10 days after inoculation
Description: Leptosphaeria nodorum Test (Wheat)/Protective To prepare an expedient active compound preparation, 1 part by weight of active compound is mixed with the stated amounts of solvent and emulsifier, and the concentrate is diluted to the desired concentration with water. To test for protective activity, young plants are sprayed with the active compound preparation at the application rate stated. After the spray coating has dried on, the plants are sprayed with a spore suspension of Leptosphaeria nodorum. The plants remain in an incubation cabinet for 48 hours at 20° C. and 100% relative atmospheric humidity. The plants are then placed into a greenhouse at a temperature of approximately 15° C. and a relative atmospheric humidity of approximately 80%. The test is evaluated 10 days after the inoculation. 0% means an efficacy which corresponds to that of the control, while an efficacy of 100% means that no disease is observed.

SMILES: Cn1cc(C(=O)Nc2ccc(F)cc2-c2ccc(F)c(Cl)c2)c(C(F)F)n1
- Efficacy in % (Botrytis cinerea): 87%

- chromatographic logP [1]: 3.05
SMILES: Cn1cc(C(=O)Nc2ccc(F)cc2-c2ccc(Cl)c(F)c2)c(C(F)F)n1 [Example 1, N-(4′-chloro-3′,5-difluorobiphenyl-2-yl)-3-(difluoromethyl)-1-methyl-1H-pyrazole-4-carboxamide]

- chromatographic logP [1]: 2.94
SMILES: Cc1ccc(-c2cc(F)ccc2N)cc1F [Example (III-2), 5,3′-difluoro-4′-methylbiphenyl-2-ylamine]

- chromatographic logP [1]: 3.26
SMILES: Cn1cc(C(=O)Nc2ccc(F)cc2-c2ccc(Cl)c(F)c2)c(C(F)(F)F)n1 [N-(4′-chloro-5,3′-difluorobiphenyl-2-yl)-1-methyl-3-trifluoromethyl-1H-pyrazole-4-carboxamide]

- chromatographic logP [1]: 3.27
SMILES: Cc1ccc(-c2cc(F)ccc2NC(=O)c2cn(C)nc2C(F)(F)F)cc1F [N-(5,3′-difluoro-4′-methylbiphenyl-2-yl)-1-methyl-3-trifluoromethyl-1H-pyrazole-4-carboxamide]

- chromatographic logP [1]: 3.05
SMILES: Cc1ccc(-c2cc(F)ccc2NC(=O)c2cn(C)nc2C(F)F)cc1F [N-(5,3′-difluoro-4′-methylbiphenyl-2-yl)-3-difluoromethyl-1-methyl-1H-pyrazole-4-carboxamide]

SMILES: Cn1cc(C(=O)Nc2cc(F)ccc2-c2ccc(F)c(Cl)c2)c(C(F)F)n1 [drawing 15, reference compound]
- Efficacy in % (Botrytis cinerea): 52%

SMILES: Cn1cc(C(=O)Nc2ccc(F)cc2-c2ccc(Cl)c(F)c2)c(C(F)F)n1 [drawing 17]
- Efficacy in % (Botrytis cinerea): 100%

SMILES: Cn1cc(C(=O)Nc2cc(F)ccc2-c2ccc(F)c(Cl)c2)c(C(F)F)n1 [drawing 18, reference compound]
- Efficacy in % (Pyrenophora teres): 93%

SMILES: Cn1cc(C(=O)Nc2ccc(F)cc2-c2ccc(Cl)c(F)c2)c(C(F)F)n1 [drawing 19]
- Efficacy in % (Pyrenophora teres): 100%

SMILES: Cn1cc(C(=O)Nc2cc(F)ccc2-c2ccc(F)c(Cl)c2)c(C(F)F)n1 [drawing 20, reference compound]
- Efficacy in % [2]: 33%

SMILES: Cn1cc(C(=O)Nc2ccc(F)cc2-c2ccc(Cl)c(F)c2)c(C(F)F)n1 [drawing 21]
- Efficacy in % [2]: 78%

SMILES: Cn1cc(C(=O)Nc2cc(F)ccc2-c2ccc(F)c(Cl)c2)c(C(F)F)n1 [drawing 22, reference compound]
- Efficacy in % (Leptosphaeria nodorum): 0%

SMILES: Cn1cc(C(=O)Nc2ccc(F)cc2-c2ccc(Cl)c(F)c2)c(C(F)F)n1 [drawing 23]
- Efficacy in % (Leptosphaeria nodorum): 84%
